Assay results published in PubChem BioAssay (NCI).
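A five-concentration, 48-hour dose response in 96-well plates underlies each endpoint, interpolated linearly between surrounding concentrations. GI50 is the concentration that inhibits growth by half. TGI: concentration producing complete growth inhibition.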

What was measured:
Experiment in all cases: NCI tumour cell line growth inhibition, 48 h
SNB-78 CNS = system: SNB-78 CNS
XF 498 CNS = system: XF 498 CNS
LXFL 529 NSCLC = system: LXFL 529 NSCLC
DLD-1 colon = system: DLD-1 colon
HOP-18 NSCLC = system: HOP-18 NSCLC
P388 leukemia = system: P388 leukemia
SN12K1 renal = system: SN12K1 renal
DMS 273 small cell lung = system: DMS 273 small cell lung
P388/ADR leukemia = system: P388/ADR leukemia
RXF-631 renal = system: RXF-631 renal

| SMILES | TGI (SNB-78 CNS) [µM] | TGI (XF 498 CNS) [µM] | TGI (LXFL 529 NSCLC) [µM] | TGI (DLD-1 colon) [µM] | TGI (HOP-18 NSCLC) [µM] | TGI (P388 leukemia) [µM] | TGI (SN12K1 renal) [µM] | TGI (DMS 273 small cell lung) [µM] | TGI (P388/ADR leukemia) [µM] | GI50 (HOP-18 NSCLC) [µM] | GI50 (P388 leukemia) [nM] | GI50 (P388/ADR leukemia) [nM] | GI50 (SN12K1 renal) [µM] | GI50 (DMS 273 small cell lung) [nM] | GI50 (SNB-78 CNS) [µM] | GI50 (XF 498 CNS) [nM] | GI50 (DLD-1 colon) [µM] | TGI (RXF-631 renal) [µM] |
| --- | --- | --- | --- | --- | --- | --- | --- | --- | --- | --- | --- | --- | --- | --- | --- | --- | --- | --- |
| CC1OC=CC(=O)C1O (stereo not given) | > 100 | > 100 | > 100 | > 100 |  |  |  |  |  |  |  |  |  |  |  |  |  |  |
| C=C1CC(OC)(C(O)C(=O)N[C@H]2OCO[C@H]3C2O[C@H](C[C@H](O)COC)C(C)(C)C3OC)O[C@H](C)[C@@H]1C (stereo not given in full) | > 0.00772 | > 0.00772 |  |  | > 0.00772 | > 0.00772 | > 0.00772 |  |  |  |  |  |  |  |  |  |  |  |
| COc1cccc2c1[C@]1(O)C(O)CCCC21 (stereo not given in full) | > 100 |  | > 100 | > 100 | > 100 |  |  | > 100 |  |  |  |  |  |  |  |  |  |  |
| CC1(C)N=C(N)N=C(N)N1c1ccc(OCCCOc2ccccc2)c(Cl)c1 | 18 |  |  | > 100 | 17.6 | 10.3 | 11.2 | 1.15 | > 100 |  |  |  |  |  |  |  |  |  |
| NC1CCCCC1N.O=S(=O)([O-])CCCN1CCN(CCO)CC1.O=S(=O)([O-])CCCN1CCN(CCO)CC1.[Pt+4] | > 86.4 | 24.6 |  | > 100 | > 100 | > 32 | > 100 | 19.9 | > 47.7 | 21.6 | 129 | 2560 | 3.29 | 1240 | 15.8 | 1250 | 8.44 |  |
| CC(=O)Nc1ccc(/C=C(\NC(=O)c2ccccc2)C(=O)NNS(=O)(=O)c2ccc(C)cc2)cc1 | > 100 | > 100 | > 100 | > 100 | > 100 |  |  | 34.8 |  |  |  |  |  |  |  |  |  |  |
| CC(=O)[C@H]1CCC2[C@@H]3CC=C4C(O)C(OS(=O)(=O)O)CC[C@]4(C)C3CC[C@@]21C (stereo not given in full) | > 100 |  |  | > 100 | > 100 | > 100 | > 100 | > 100 | > 100 |  |  |  |  |  |  |  |  |  |
| CCOC(=O)C[n+]1ccc2c([nH]c3cc(OC)ccc32)c1C | > 100 | > 100 |  | > 100 | > 100 | > 100 | > 100 | > 100 | > 100 |  |  |  |  |  |  |  |  |  |
| O=C1OC2C=CC1C1(CCOC1=O)C2 (stereo not given) |  | > 100 | > 100 | > 100 | > 100 |  |  | > 100 |  |  |  |  |  |  |  |  |  |  |
| CN(CCN(C)C(=O)CCn1ccc(=O)[nH]c1=O)C(=O)CCn1ccc(=O)[nH]c1=O | > 100 | > 100 | > 100 |  |  |  |  | > 100 |  |  |  |  |  |  |  |  |  |  |
| Nc1ccc(-c2nc3ccccc3s2)cc1 | 98.2 |  | 33.4 | 77.3 | > 100 |  |  |  |  |  |  |  |  |  |  |  |  | 46.2 |
| CCCCCCc1cn([C@H]2C[C@H](O)[C@@H](CO)O2)c(=O)[nH]c1=O | > 100 | > 100 |  | > 100 | > 100 | > 100 | > 100 | > 100 | > 100 |  |  |  |  |  |  |  |  |  |
